Results as given in patent US11879895B2, “Intercellular proximity labeling using eGRASP” (Seoul National University R&DB Foundation, priority 2018, dated 2024).

What was measured:
[1] = target: T1, Abl SH3 peptide (Homo sapiens, UniProt P00519); assay: Binding of Abl SH3 binding peptide to Abl SH3 peptide of post-eGRASP; details: p32 compared with p30
T1 construct: IgG kappa signal peptide (N)
Procedure: (3) Abl SH3 binding peptide contained in Pre-eGRASP had p30 (APTKPPPLPP) or p32 (SPSYSPPPPP) sequence. p32 was bound more strongly to Abl SH3 peptide of post-eGRASP than p30. Therefore, in this example, a cyan pre-eGRASP designed to be continuously expressed was prepared using p30, and in this example, yellow pre-eGRASP designed to start to be expressed from a specific time point when memory starts to be formed was prepared using p32, thereby matching the balance of cyan fluorescence and yellow fluorescence.

[2] = tested on: DG; assay: Validation of the Fos-rtTA system with seizures; assay type: in vivo, mice; details: injection of seizure inducer, doxycycline 2 hours before
Procedure: FIGS. 8a to 8c show the results of validation experiments of the Fos-rtTA system with seizures. FIG. 8a is a schematic illustration of the injected AAV, in which the nuclear target mEmerald (mEmerald-Nuc) was regulated by the TRE3G promoter that were regulated by rtTA3G expressed by the Fos promoter, and the nuclear target mCherry regulated by CaMKIIα was used for an expression control.
Doxycycline was injected 2 hours before seizure induction or contextual fear conditioning (CFC) to successfully label activated cells during each event (FIGS. 8A to 8C and FIGS. 9A to 9D). FIGS. 8a to 8c show the results of validation experiments of the Fos-rtTA system with seizures. FIG. 8a is a schematic illustration of the injected AAV, in which the nuclear target mEmerald (mEmerald-Nuc) was regulated by the TRE3G promoter regulated by rtTA3G expressed by the Fos promoter, and the nuclear target mCherry regulated by CaMKIIα was used as an expression control. […] FIGS. 9a to 9d show the results of the verification experiment of the Fos-rtTA system using CFC. […] FIG. 9b is a diagram showing a timetable of actions used in the experiment.

[3] = tested on: HEK293T cells; assay: GRASP signal at the interface of separately nucleofected HEK293T cells; assay type: cell-based, human; details: pre- and post-constructs transduced into separate HEK293T cells through nucleofection
Source text: According to still another embodiment of the present disclosure, the first labeling material or the second labeling material may further comprise a first binding-enhancing site or a second binding-enhancing site, respectively. Specifically, when the first labeling material and the second labeling material are located in close proximity, the first labeling material and the second labeling material are bound to each other to generate a signal. In order to assist the binding, the first labeling material and the second labeling material may further comprise a first binding-enhancing site and a second binding-enhancing site, respectively. The first binding-enhancing site and the second binding-enhancing site may form a binding with each other. Therefore, when the first labeling material and the second labeling material are adjacent to each other, the first binding-enhancing site and the second binding-enhancing site are bound to assist the binding of the first labeling material and the second labeling material.
The upper figure of FIG. 5a is a result when either post-mGRASP or mCherry-binding pre-mGRASP co-expressing mTagBFP2 was transduced into HEK293T cells through nucleofection. […] Peptide p40 (APTYSPPPPP) was bound to a SH3 domain in the post-eGRASP structure to enhance GRASP signals. […]

T1 sequence (P00519 with tags, fused parts or gaps): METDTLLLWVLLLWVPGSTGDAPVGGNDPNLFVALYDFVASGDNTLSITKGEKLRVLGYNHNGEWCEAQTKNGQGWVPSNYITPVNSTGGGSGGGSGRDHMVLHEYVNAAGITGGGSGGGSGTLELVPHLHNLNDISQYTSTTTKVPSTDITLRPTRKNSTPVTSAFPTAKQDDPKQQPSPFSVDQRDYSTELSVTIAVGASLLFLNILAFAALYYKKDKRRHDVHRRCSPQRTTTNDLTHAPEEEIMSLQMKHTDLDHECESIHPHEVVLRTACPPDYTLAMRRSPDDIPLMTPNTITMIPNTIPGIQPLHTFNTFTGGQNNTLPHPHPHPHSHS

SPSYSPPPPP ((synthetic) p32) was tested. Which “binding to Abl SH3 peptide, relative” value [1] did it give?
Its value is “more strongly”.

How did the “mEmerald-Nuc signal in DG” value [2] turn out when `C1CCc2nnnn2CC1` [Pentylenetetrazol] was run?
The value was “strong mEmerald-Nuc signal”.

“S72A: Additional S72A mutation in strands 1-10 of the split GFP; SEQ ID NO: 2” was tested. Which “GRASP signal at the interface between cells” value [3] did it give?
Its value is “GRASP signal increases”.
